Here are results for 33 molecules from a melting point compilation (Tetko et al.; mined from patent text by program, amines drawn as free bases though some values may be those of a salt).

As usually defined, the melting point is the temperature of the solid-liquid transition.

As to `O=C(c1ccc2nonc2c1)N1CC2CCC1C2` (stereo not drawn), the melting point was in the range of 92 to 93 °C.

Molecule `O=C(CCc1cnoc1-c1ccccc1)Nc1ccc2ccccc2n1` returned a melting point of 112 to 113 °C.

Consider `COC(=O)c1ccc(CNC(C)=O)cc1S(=O)(=O)NC(=O)Nc1nc(OC)cc(OC)n1`, for which the melting point fell in the range of 149 to 150 °C.

On to `CC(CS(=O)(=O)c1ccc(-c2ccc(C(F)(F)F)cc2)cc1)N(O)C=O` (stereo not drawn), for which the melting point turned out to be 175 °C.

Regarding `COC=C(C(=O)OC)c1ccccc1[C@@H]1O[C@H]1c1ccccc1` (relative stereo), the melting point lay within 110 to 113 °C.

For `O=C/C=C/C=C/c1ccc(OCC(F)(F)C(F)F)nc1`, the melting point is 88 to 89 °C.

The molecule `CN1CCN(c2c(F)c(NCc3ccccc3)c3c(c2F)n2c(=O)n(OCc4ccccc4)c(=O)cc2n3C2CC2)CC1` had a melting point of 214 °C.

The molecule `CC1(C)Oc2ccc(C#N)cc2[C@@H](NC(=O)NC(=O)C(Cl)(Cl)Cl)[C@@H]1O` (relative stereo) displayed a melting point of 231 to 233 °C.

For the molecule `COc1ccc(/C=C(/C#N)c2cccs2)cc1OC1CCCC1`, the melting point is 100 to 101 °C.

Molecule `C=CCOC(=O)N1CCCC(OC)C1CC(=O)Cn1cnc2cc(Br)c(Cl)cc2c1=O` (stereo not drawn) came in with a melting point of 112 °C.

`CCOC(=O)C(=O)Nc1cc(Cl)c(Cl)c(Cl)c1` displayed a melting point of 148 to 151 °C.

On to `COc1ccc(S(=O)(=O)Nc2nc(-c3cccc([N+](=O)[O-])c3)cs2)cc1OC`, for which the melting point came to 185 °C.

The molecule `CC(C)n1nc(-c2sc(NC(=N)N)nc2-c2ccccc2)ccc1=O` came in with a melting point of over 250 °C.

For the molecule `NCC1(c2cccc(C(F)(F)F)c2)CCN(C(=O)CN2CCN(c3cnccn3)CC2)CC1`, the melting point was 152 to 153 °C.

Consider `N#Cc1cc(F)c(NC(=O)CC(=O)C(F)(F)F)cc1F`, for which the melting point lay in the range of 176 to 181 °C.

With `CNC1c2c(O)c(C)cc(C)c2C2CCCCC21` (stereo not drawn), the melting point fell in the range of 110 to 111 °C.

`Cc1sc(NS(=O)(=O)c2ccc(-c3ccccc3)cc2)nc1CC(=O)N1CCOCC1` yielded a melting point of 204 to 206 °C.

On to `CCN(C)C(=O)/C=C/CSc1nc(N)cc(Cl)n1`, for which the melting point was in the range of 170 to 172 °C.

For the molecule `CC(C)(C#N)c1cc(CC#N)cc(C(C)(C)C#N)c1`, the melting point was 72 to 73 °C.

Consider `CCOC(=O)N1c2cc(OC)c(OC)cc2C(=O)C(=CNC)C1C` (stereo not drawn), for which the melting point lay within 154 to 156 °C.

In turn, `CC(C(=O)Nc1ccc2c(c1)OCO2)N1CCN(c2ccccn2)CC1` (stereo not drawn) yielded a melting point of 189 to 191 °C.

As to `Cn1cc(-c2ccccc2[N+](=O)[O-])cn1`, the melting point lay within 41 to 44 °C.

`COC(=O)c1cc(CCCCc2c(N)nc(N)nc2O)cs1` returned a melting point of 185 to 186 °C.

On to `O=c1[nH]c2ccccc2c(=O)n1-c1ccc(Cl)cc1`, for which the melting point lay within 288 to 290 °C.

For the molecule `COc1ccc(Cn2cnc3c(-c4ccco4)nc(S(C)(=O)=O)nc32)cc1`, the melting point lay in the range of 184 to 185 °C.

`COc1cc(C)c(S(=O)(=O)NC(=S)Nc2nc(-c3ccc(C4CCCCC4)cc3)c(C)s2)c(C)c1` came in with a melting point of 177 to 178 °C.

Take `CC(C)(C)CC(C)(C)c1cc(N=Nc2ccc(C(F)(F)F)cc2[N+](=O)[O-])c(O)c(C(C)(C)c2ccccc2)c1`: the melting point lay in the range of 101 to 105 °C.

The molecule `COc1ccc(C(=O)Cc2ccccc2)c([N+](=O)[O-])c1O` showed a melting point of 176 to 177 °C.

As for `COc1cc2c(cc1S(=O)(=O)c1ccc(C)cc1)[C@@H](N1CCCC1=O)[C@H](O)C(C)(C)O2` (relative stereo), the melting point lay within 263 to 265 °C.

Regarding `O=C(O)Cn1cc(Cc2cccc([N+](=O)[O-])c2)c2ccccc21`, the melting point lay within 163 to 165 °C.

As to `NC1(C2CCN(c3c(F)cc4c(=O)[nH]c(=O)n(C5CC5)c4c3OC(F)F)C2)CC1` (stereo not drawn), the melting point was 210 to 214 °C.

For the molecule `COCCOc1ccc(-c2sc(N3C(=O)c4ccccc4C3=O)c(C(=O)c3ccc(Cl)cc3)c2CBr)cc1`, the melting point was 142 to 145 °C.

`Cc1cc(N)c(C)nc1OC(F)F` yielded a melting point of 38.4 to 39.4 °C.
